Experimental data reported in patent publication US20260130395A1, “Water Dispersible Botanical Compositions” (Aquila Black Limited, priority 2021, published 2026).

Tests used:
[1] = Stability of cannabinoid entourage and Vitamin E components of the powder concentrate by LCMSMS; type: physicochemical; details: powder stored at 21-25° C.
Protocol: At each time period, 0.05 g of powder was dissolved in 10 ml-15 of ethanol, diluted to fall within the analytical range, and injected into the LCMSMS for analysis.

[2] = Stability of cannabinoid compounds and Vitamin E components in Beverage 1 (AB White) by LCMSMS; type: physicochemical; details: for Stability of Plant-Derived Cannabinoid Compounds in AB White, 8° C.: AB White stored at 8° C.; for Stability of Plant-Derived Cannabinoid Compounds in AB White, 21-25° C.: AB White stored at 21-25° C.
Protocol: The stability of the plant-derived cannabinoid compounds and Vitamin E components of the beverage stored 8° C. and at room temperature (21-25° C.) were monitored, over a period of 570 days via Liquid Chromatography-tandem Mass Spectrometry [LCMSMS, Agilent 6590, C18, 3×50 mm, 2.7 m (Agilent InfinityLab Poroshell 120 EC-C18), Electrospray Ionization detector]. The LCMSMS was calibrated for 0-1000 ng/ml cannabinoids with the same resin material used in the preparation of the concentrates. At each time period, 100 ml of beverage was diluted with 10 ml of methanol and injected into the LCMSMS for analysis.

## CCCc1cc(O)c2c(c1)OC(C)(C)[C@@H]1CCC(C)=C[C@@H]21 [THCV, delta-9-tetrahydrocannabivarin]
[1]; 0 days
  Stability of Plant-Derived Cannabinoid Compounds in Powder Concentrate: 0.680 mg/g powder
[1]; 1 days
  Stability of Plant-Derived Cannabinoid Compounds in Powder Concentrate: 0.685 mg/g powder
[1]; 2 days
  Stability of Plant-Derived Cannabinoid Compounds in Powder Concentrate: 0.699 mg/g powder
[1]; 3 days
  Stability of Plant-Derived Cannabinoid Compounds in Powder Concentrate: 0.698 mg/g powder
[1]; 5 days
  Stability of Plant-Derived Cannabinoid Compounds in Powder Concentrate: 0.676 mg/g powder
[1]; 8 days
  Stability of Plant-Derived Cannabinoid Compounds in Powder Concentrate: 0.685 mg/g powder
[1]; 9 days
  Stability of Plant-Derived Cannabinoid Compounds in Powder Concentrate: 0.693 mg/g powder
[1]; 10 days
  Stability of Plant-Derived Cannabinoid Compounds in Powder Concentrate: 0.706 mg/g powder
[1]; 11 days
  Stability of Plant-Derived Cannabinoid Compounds in Powder Concentrate: 0.708 mg/g powder
[1]; 12 days
  Stability of Plant-Derived Cannabinoid Compounds in Powder Concentrate: 0.698 mg/g powder
[1]; 15 days
  Stability of Plant-Derived Cannabinoid Compounds in Powder Concentrate: 0.684 mg/g powder
[1]; 16 days
  Stability of Plant-Derived Cannabinoid Compounds in Powder Concentrate: 0.658 mg/g powder
[1]; 17 days
  Stability of Plant-Derived Cannabinoid Compounds in Powder Concentrate: 0.681 mg/g powder
[1]; 18 days
  Stability of Plant-Derived Cannabinoid Compounds in Powder Concentrate: 0.690 mg/g powder
[1]; 19 days
  Stability of Plant-Derived Cannabinoid Compounds in Powder Concentrate: 0.705 mg/g powder
[1]; 22 days
  Stability of Plant-Derived Cannabinoid Compounds in Powder Concentrate: 0.703 mg/g powder
[1]; 23 days
  Stability of Plant-Derived Cannabinoid Compounds in Powder Concentrate: 0.687 mg/g powder
[1]; 24 days
  Stability of Plant-Derived Cannabinoid Compounds in Powder Concentrate: 0.668 mg/g powder
[1]; 25 days
  Stability of Plant-Derived Cannabinoid Compounds in Powder Concentrate: 0.689 mg/g powder
[1]; 26 days
  Stability of Plant-Derived Cannabinoid Compounds in Powder Concentrate: 0.686 mg/g powder
[1]; 29 days
  Stability of Plant-Derived Cannabinoid Compounds in Powder Concentrate: 0.706 mg/g powder
[1]; 30 days
  Stability of Plant-Derived Cannabinoid Compounds in Powder Concentrate: 0.659 mg/g powder
[1]; 60 days
  Stability of Plant-Derived Cannabinoid Compounds in Powder Concentrate: 0.702 mg/g powder
[1]; 90 days
  Stability of Plant-Derived Cannabinoid Compounds in Powder Concentrate: 0.707 mg/g powder
[1]; 120 days
  Stability of Plant-Derived Cannabinoid Compounds in Powder Concentrate: 0.658 mg/g powder
[1]; 150 days
  Stability of Plant-Derived Cannabinoid Compounds in Powder Concentrate: 0.695 mg/g powder
[1]; 180 days
  Stability of Plant-Derived Cannabinoid Compounds in Powder Concentrate: 0.685 mg/g powder
[1]; 210 days
  Stability of Plant-Derived Cannabinoid Compounds in Powder Concentrate: 0.662 mg/g powder
[1]; 240 days
  Stability of Plant-Derived Cannabinoid Compounds in Powder Concentrate: 0.700 mg/g powder
[1]; 270 days
  Stability of Plant-Derived Cannabinoid Compounds in Powder Concentrate: 0.670 mg/g powder
[1]; 300 days
  Stability of Plant-Derived Cannabinoid Compounds in Powder Concentrate: 0.685 mg/g powder
[1]; 330 days
  Stability of Plant-Derived Cannabinoid Compounds in Powder Concentrate: 0.691 mg/g powder
[1]; 360 days
  Stability of Plant-Derived Cannabinoid Compounds in Powder Concentrate: 0.668 mg/g powder
[1]; 390 days
  Stability of Plant-Derived Cannabinoid Compounds in Powder Concentrate: 0.680 mg/g powder
[1]; 420 days
  Stability of Plant-Derived Cannabinoid Compounds in Powder Concentrate: 0.671 mg/g powder
[1]; 450 days
  Stability of Plant-Derived Cannabinoid Compounds in Powder Concentrate: 0.680 mg/g powder
[1]; 480 days
  Stability of Plant-Derived Cannabinoid Compounds in Powder Concentrate: 0.695 mg/g powder
[1]; 510 days
  Stability of Plant-Derived Cannabinoid Compounds in Powder Concentrate: 0.696 mg/g powder
[1]; 540 days
  Stability of Plant-Derived Cannabinoid Compounds in Powder Concentrate: 0.664 mg/g powder
[1]; 570 days
  Stability of Plant-Derived Cannabinoid Compounds in Powder Concentrate: 0.686 mg/g powder
[2]; 0 days
  Stability of Plant-Derived Cannabinoid Compounds in AB White, 8° C.: 3.6 µg/mL
  Stability of Plant-Derived Cannabinoid Compounds in AB White, 21-25° C.: 3.6 µg/mL
[2]; 1 days
  Stability of Plant-Derived Cannabinoid Compounds in AB White, 8° C.: 3.54 µg/mL
  Stability of Plant-Derived Cannabinoid Compounds in AB White, 21-25° C.: 3.48 µg/mL
[2]; 2 days
  Stability of Plant-Derived Cannabinoid Compounds in AB White, 8° C.: 3.60 µg/mL
  Stability of Plant-Derived Cannabinoid Compounds in AB White, 21-25° C.: 3.58 µg/mL
[2]; 3 days
  Stability of Plant-Derived Cannabinoid Compounds in AB White, 8° C.: 3.55 µg/mL
  Stability of Plant-Derived Cannabinoid Compounds in AB White, 21-25° C.: 3.54 µg/mL
[2]; 5 days
  Stability of Plant-Derived Cannabinoid Compounds in AB White, 8° C.: 3.58 µg/mL
  Stability of Plant-Derived Cannabinoid Compounds in AB White, 21-25° C.: 3.55 µg/mL
[2]; 8 days
  Stability of Plant-Derived Cannabinoid Compounds in AB White, 8° C.: 3.60 µg/mL
  Stability of Plant-Derived Cannabinoid Compounds in AB White, 21-25° C.: 3.63 µg/mL
[2]; 9 days
  Stability of Plant-Derived Cannabinoid Compounds in AB White, 8° C.: 3.61 µg/mL
  Stability of Plant-Derived Cannabinoid Compounds in AB White, 21-25° C.: 3.55 µg/mL
[2]; 10 days
  Stability of Plant-Derived Cannabinoid Compounds in AB White, 8° C.: 3.58 µg/mL
  Stability of Plant-Derived Cannabinoid Compounds in AB White, 21-25° C.: 3.55 µg/mL
[2]; 11 days
  Stability of Plant-Derived Cannabinoid Compounds in AB White, 8° C.: 3.59 µg/mL
  Stability of Plant-Derived Cannabinoid Compounds in AB White, 21-25° C.: 3.59 µg/mL
[2]; 12 days
  Stability of Plant-Derived Cannabinoid Compounds in AB White, 8° C.: 3.50 µg/mL
  Stability of Plant-Derived Cannabinoid Compounds in AB White, 21-25° C.: 3.47 µg/mL
[2]; 15 days
  Stability of Plant-Derived Cannabinoid Compounds in AB White, 8° C.: 3.56 µg/mL
  Stability of Plant-Derived Cannabinoid Compounds in AB White, 21-25° C.: 3.48 µg/mL
[2]; 16 days
  Stability of Plant-Derived Cannabinoid Compounds in AB White, 8° C.: 3.57 µg/mL
  Stability of Plant-Derived Cannabinoid Compounds in AB White, 21-25° C.: 3.60 µg/mL
[2]; 17 days
  Stability of Plant-Derived Cannabinoid Compounds in AB White, 8° C.: 3.61 µg/mL
  Stability of Plant-Derived Cannabinoid Compounds in AB White, 21-25° C.: 3.51 µg/mL
[2]; 18 days
  Stability of Plant-Derived Cannabinoid Compounds in AB White, 8° C.: 3.59 µg/mL
  Stability of Plant-Derived Cannabinoid Compounds in AB White, 21-25° C.: 3.50 µg/mL
[2]; 19 days
  Stability of Plant-Derived Cannabinoid Compounds in AB White, 8° C.: 3.51 µg/mL
  Stability of Plant-Derived Cannabinoid Compounds in AB White, 21-25° C.: 3.59 µg/mL
[2]; 22 days
  Stability of Plant-Derived Cannabinoid Compounds in AB White, 8° C.: 3.60 µg/mL
  Stability of Plant-Derived Cannabinoid Compounds in AB White, 21-25° C.: 3.52 µg/mL
[2]; 23 days
  Stability of Plant-Derived Cannabinoid Compounds in AB White, 8° C.: 3.55 µg/mL
  Stability of Plant-Derived Cannabinoid Compounds in AB White, 21-25° C.: 3.57 µg/mL
[2]; 24 days
  Stability of Plant-Derived Cannabinoid Compounds in AB White, 8° C.: 3.56 µg/mL
  Stability of Plant-Derived Cannabinoid Compounds in AB White, 21-25° C.: 3.63 µg/mL
[2]; 25 days
  Stability of Plant-Derived Cannabinoid Compounds in AB White, 8° C.: 3.56 µg/mL
  Stability of Plant-Derived Cannabinoid Compounds in AB White, 21-25° C.: 3.54 µg/mL
[2]; 26 days
  Stability of Plant-Derived Cannabinoid Compounds in AB White, 8° C.: 3.63 µg/mL
  Stability of Plant-Derived Cannabinoid Compounds in AB White, 21-25° C.: 3.55 µg/mL
[2]; 29 days
  Stability of Plant-Derived Cannabinoid Compounds in AB White, 8° C.: 3.52 µg/mL
  Stability of Plant-Derived Cannabinoid Compounds in AB White, 21-25° C.: 3.62 µg/mL
[2]; 30 days
  Stability of Plant-Derived Cannabinoid Compounds in AB White, 8° C.: 3.59 µg/mL
  Stability of Plant-Derived Cannabinoid Compounds in AB White, 21-25° C.: 3.48 µg/mL
[2]; 60 days
  Stability of Plant-Derived Cannabinoid Compounds in AB White, 8° C.: 3.58 µg/mL
  Stability of Plant-Derived Cannabinoid Compounds in AB White, 21-25° C.: 3.50 µg/mL
[2]; 90 days
  Stability of Plant-Derived Cannabinoid Compounds in AB White, 8° C.: 3.56 µg/mL
  Stability of Plant-Derived Cannabinoid Compounds in AB White, 21-25° C.: 3.47 µg/mL
[2]; 120 days
  Stability of Plant-Derived Cannabinoid Compounds in AB White, 8° C.: 3.56 µg/mL
  Stability of Plant-Derived Cannabinoid Compounds in AB White, 21-25° C.: 3.45 µg/mL
[2]; 150 days
  Stability of Plant-Derived Cannabinoid Compounds in AB White, 8° C.: 3.55 µg/mL
  Stability of Plant-Derived Cannabinoid Compounds in AB White, 21-25° C.: 3.54 µg/mL
[2]; 180 days
  Stability of Plant-Derived Cannabinoid Compounds in AB White, 8° C.: 3.59 µg/mL
  Stability of Plant-Derived Cannabinoid Compounds in AB White, 21-25° C.: 3.52 µg/mL
[2]; 210 days
  Stability of Plant-Derived Cannabinoid Compounds in AB White, 8° C.: 3.44 µg/mL
  Stability of Plant-Derived Cannabinoid Compounds in AB White, 21-25° C.: 3.40 µg/mL
[2]; 240 days
  Stability of Plant-Derived Cannabinoid Compounds in AB White, 8° C.: 3.56 µg/mL
  Stability of Plant-Derived Cannabinoid Compounds in AB White, 21-25° C.: 3.41 µg/mL
[2]; 270 days
  Stability of Plant-Derived Cannabinoid Compounds in AB White, 8° C.: 3.47 µg/mL
  Stability of Plant-Derived Cannabinoid Compounds in AB White, 21-25° C.: 3.56 µg/mL
[2]; 300 days
  Stability of Plant-Derived Cannabinoid Compounds in AB White, 8° C.: 3.46 µg/mL
  Stability of Plant-Derived Cannabinoid Compounds in AB White, 21-25° C.: 3.52 µg/mL
[2]; 330 days
  Stability of Plant-Derived Cannabinoid Compounds in AB White, 8° C.: 3.52 µg/mL
  Stability of Plant-Derived Cannabinoid Compounds in AB White, 21-25° C.: 3.55 µg/mL
[2]; 360 days
  Stability of Plant-Derived Cannabinoid Compounds in AB White, 8° C.: 3.50 µg/mL
  Stability of Plant-Derived Cannabinoid Compounds in AB White, 21-25° C.: 3.49 µg/mL
[2]; 390 days
  Stability of Plant-Derived Cannabinoid Compounds in AB White, 8° C.: 3.47 µg/mL
  Stability of Plant-Derived Cannabinoid Compounds in AB White, 21-25° C.: 3.40 µg/mL
[2]; 420 days
  Stability of Plant-Derived Cannabinoid Compounds in AB White, 8° C.: 3.49 µg/mL
  Stability of Plant-Derived Cannabinoid Compounds in AB White, 21-25° C.: 3.46 µg/mL
[2]; 450 days
  Stability of Plant-Derived Cannabinoid Compounds in AB White, 8° C.: 3.44 µg/mL
  Stability of Plant-Derived Cannabinoid Compounds in AB White, 21-25° C.: 3.47 µg/mL
[2]; 480 days
  Stability of Plant-Derived Cannabinoid Compounds in AB White, 8° C.: 3.44 µg/mL
  Stability of Plant-Derived Cannabinoid Compounds in AB White, 21-25° C.: 3.30 µg/mL
[2]; 510 days
  Stability of Plant-Derived Cannabinoid Compounds in AB White, 8° C.: 3.34 µg/mL
  Stability of Plant-Derived Cannabinoid Compounds in AB White, 21-25° C.: 3.32 µg/mL
[2]; 540 days
  Stability of Plant-Derived Cannabinoid Compounds in AB White, 8° C.: 3.32 µg/mL
  Stability of Plant-Derived Cannabinoid Compounds in AB White, 21-25° C.: 3.44 µg/mL
[2]; 570 days
  Stability of Plant-Derived Cannabinoid Compounds in AB White, 8° C.: 3.30 µg/mL
  Stability of Plant-Derived Cannabinoid Compounds in AB White, 21-25° C.: 3.30 µg/mL
